Paper PMC6984126, “Ficus deltoidea extract down-regulates protein tyrosine phosphatase 1B expression in a rat model of type 2 diabetes mellitus: a new insight into its antidiabetic mechanism” (Journal of Nutritional Science, 2020)
Marks after values point to notes of the source that are not given here.

Assays:
PTP1B mRNA = assay: Hepatic gene expression by quantitative real-time PCR: PTP1B; details: liver mRNA; MET 150 mg/kg
Experimental: (§3) Total RNA was isolated from rat livers using an Rneasy Mini Kit according to the manufacturer's protocol (Qiagen). First-strand cDNA synthesis from 1 µg total RNA was done employing a reverse transcriptase kit and oligo(dT) (Thermo Scientific). PTP1B, phosphoenolpyruvate carboxykinase (PEPCK), glucose 6-phosphatase (G6Pase), GLUT2 (Slc2a2) and insulin receptor (INR) target genes were amplified by quantitative real-time-PCR using specific primers (Supplementary Table S1). cDNA was added to a Quantifast SYBR Green qPCR Master Mix (Qiagen) containing 30 pg/ml of each primer. […] The β-actin gene was amplified in the same reaction as a reference gene to normalise data. Relative gene expression was calculated using the Livak & Schmittgen method([42]).

[1] = test system: streptozotocin–nicotinamide-induced type 2 diabetic rats; assay: Pancreatic oxidative stress biomarkers in STZ–NA diabetic rats; type: in vivo, Wistar rats; details: MET 150 mg/kg
Experimental: (§1) NA was dissolved in normal saline.
(§2) At the end of the 28th day, blood samples were withdrawn from the retro-orbital venous plexus under light ether anaesthesia into two sampling tubes, one containing Na-EDTA at day 28 post-medication for the estimation of Hb([22]). The second blood sample was centrifuged at 3500 rpm for 15 min to separate sera for the estimation of insulin level([23]). Other biochemical parameters such as alanine transaminase and aspartate transaminase activities in serum were measured([24]). Serum levels of total bilirubin([25]), total protein([26]), TAG([27]), total cholesterol([28]), HDL-cholesterol([29]) and LDL-cholesterol([30]) were measured using commercially available kits (Quimica Clinica). Preparation of pancreatic homogenate was done according to Mansour et al.([31]). The activities of superoxide dismutase (SOD), glutathione peroxidase (GPx) and catalase (CAT) in hepatic and pancreatic tissues were estimated([32]–[34]), respectively. Reduced glutathione (GSH)([35]), lipid peroxidation products were estimated by determining malondialdehyde (MDA) content in the hepatic and pancreatic tissue([36]) and GLUT2 was determined using commercial diagnostic kits (Chema Diagnostica)([37]).

[2] = test system: insulin receptor (INR) mRNA; assay: Hepatic gene expression by quantitative real-time PCR: insulin receptor; details: MET 150 mg/kg
Experimental: as §3

[3] = test system: phosphoenolpyruvate carboxykinase (PEPCK) mRNA; assay: Hepatic gene expression by quantitative real-time PCR: PEPCK; details: MET 150 mg/kg
Experimental: as §3

GLUT2 gene (Slc2a2) mRNA = assay: Hepatic gene expression by quantitative real-time PCR: Slc2a2; details: liver mRNA; MET 150 mg/kg
Experimental: as §3

[4] = test system: glucose 6-phosphatase (G6Pase) mRNA; assay: Hepatic gene expression by quantitative real-time PCR: G6Pase; details: MET 150 mg/kg
Experimental: as §3

[5] = test system: streptozotocin–nicotinamide-induced type 2 diabetic rats; assay: Serum hepatic markers, bilirubin and total protein in STZ–NA diabetic rats; type: in vivo, Wistar rats; details: MET 150 mg/kg orally, 4 weeks
Experimental: as §1, §2

[6] = test system: streptozotocin–nicotinamide-induced type 2 diabetic rats; assay: Fasting blood glucose, insulin and Hb in STZ–NA diabetic rats; type: in vivo, Wistar rats; details: MET 150 mg/kg orally; 4 weeks
Experimental: as §1, §2

GLUT2 = GLUT2 protein levels in liver and pancreas of diabetic rats; type: in vivo, Wistar rats; details: MET 150 mg/kg
Experimental: as §1, §2

melting point	SMILES	PTP1B expression level, % of the levels in the diabetic group (PTP1B mRNA)	Effect on MDA level in the pancreas of diabetic rats [1]	Increase in pancreatic GPx compared with diabetic control rats [1]	Increase in pancreatic GSH content [1]	Effect of STZ on hepatic insulin receptor mRNA levels [2]	Expression of PEPCK in the liver [3]	Slc2a2 expression, % of the normal level (GLUT2 gene (Slc2a2) mRNA)	Expression of G6Pase in the liver [4]	Total bilirubin [5]	Total protein [5]	Hb [6]	GLUT2 in the liver compared with the diabetic control (GLUT2)	GLUT2 in the pancreas compared with the diabetic control (GLUT2)
	CN(C)C(=N)N=C(N)N [MET, metformin]	approximately 75%	did not significantly affect	63%	46%	reversed	decreased expression	92%	decreased expression	4† mg/l	114* g/l	135† g/l	significantly increased	significantly increased
308 to 309 °C	CC1(C)CC[C@]2(C)CC[C@]3(C)C(=C[C@H](O)C4[C@@]5(C)CC[C@H](O)[C@@](C)(C(=O)O)C5CC[C@]43C)C2C1 (stereo partly drawn) [Compound F3, 3β,11β-dihydroxyolean-12-en-23-oic acid]													
